Measured values reported in patent publication US20250231189A1, “MEASURING FREQUENCY OF PATHOGEN-SPECIFIC T CELLS IN […] AS E[…] TCR-INDUCED CA(2+) SIGNALING” (Thomas Jefferson University, priority 2017, published 2025).
“Also recorded” adds a separate entry of the source.

System: cloned T cells (68A62)
Assay: Ca2+ mobilization pattern in individual T cells of a T-cell monolayer (Fluo-4 fluorescence microscopy)
Format: cell-based, human
Conditions: for fraction of T cells with slower Ca2+ mobilization (pattern of inefficient T cells) / fraction of cells with rapid/strong and sustained pattern of Ca2+ flux: CTL clone 68A62, strong agonist peptide 10^-4 M IV9, FIG. 4
Source text: HIV- and Flu-specific human CD8+ T cell clones, termed 68A62 and CER43, were kindly provide by Bruce Walker and Antonio Lanzavecchia, correspondingly. These T cells recognize […] (IV9) and […] (GL9) peptides, respectively, both presented by HLA-A2 MHC class I. 115iX is a CD8+ T cell line developed from CTL D3 as a result of spontaneous mutation in its TCR β chain resulting in loss of specificity for its natural ligand (Anikeeva and Sykulev, unpublished). These were used as T cells with irrelevant specificity. After stimulation with a mixture of allogeneic PBMC and IL2 the cells are typically used in resting stage, 12-17 days after the stimulation as previously described.
10^6 cells in 1 ml of PBS were loaded with Fluo-4 (Life Technologies) at 2-4 μM for 30 min at 37° C. in the presence of 0.02% pluoronic acid F-127 and 4 mM Probenecid. The cells were washed free of unreacted reagents and incubated at 37° C. for additional 30 min. The cells were then re-suspended in the assay buffer (Dulbecco's PBS containing 1 mM CaCl2, 2 mM MgCl2, 5 mM glucose, and 0.025% BSA) and used for Ca2+ flux analysis.
Glass bottom of 96 well MatTec plates was covered with poly-L-Lysine (Sigma, mol wt>300,000) at 0.1 mg/ml for 1 hr at room temperature. After washing with DPBS and add water, TS2/4 non-blocking mAb specific for LFA-1 were added to the plate at concentration 10 μg/ml overnight & 4° C. The wells were washed with DPBS, and 3×10^5 Fluo-4-labeled T cells in 100 μl of the assay buffer were added to each well. The plates were centrifuged for 200 g for one minute and were incubated for 30 min at room temperature prior to the imaging. Suspended cells were removed by gentle washing with assay buffer. The quality of T cell monolayer was assessed using bright field microscopy.
To identify responding T cells we imaged T-cell monolayers before (background measurement) and after (response) addition of the stimulatory signal such as agonist peptide. The images of T-cell monolayers were taken at various exposure times using 10× or 20× objectives. Instead of averaging the entire set of stimulatory signal against an agonist peptide, we identified sets of cells, having different response rates and then averaged these, now separated sets of cells. This is in direct contrast to the general averaging strategy provided in PCT/US2016/039313. In some experiments Ca2+ response was also initiated by ionomycin at 10 μg/ml to optimize exposure time (data not shown). The average intensity of images prior and after the T-cell stimulation at various time points and the numbers of individual responding cells per imaging field were determined by MetaMorph software.
Glass bottom of 96-well plates was covered with poly-L-Lysine to capture TS2/4 antibody recognizing LFA-1 adhesion receptor without blocking LFA-1 functional activity. Cloned CD8 T cells with known specificity or polyclonal CD8 T cells were labeled with Ca2+ fluorophore Fluor-4 and added to the wells. The quality of the T-cell monolayers was evident from analysis of bright field images of the immobilized T cells on the glass bottom of the plate. This method allows T cells to form a continuous monolayer allowing the T cells to contact each other, which is necessary for presentation and recognition of pMHC on one T cell by another T cell.
The immobilized cells, after they are provided with stimulation of a peptide, can be imaged. Accordingly, we can take a first image, to identify the background image of each individual cell, before and after the stimulation. Accordingly, we can look at the calcium concentration of each individual cell across time. By looking at each cell, we can then determine and add them to one of three boxes for responding cells, and then a fourth type of cell that is either non-responsive or there is calcium flux that happens with or without stimulation-this typically results in a sharp peak of intensity that quickly diminishes.

[1] = listed as strong agonist ligand

Question: What does the source list for “ILKEPVHGV [IV9, peptide from HIV reverse transcriptase, presented by HLA-A2, recognized by CTL clone 68A62]”?
Answer: pattern of Ca2+ response of majority of T cells (CD8 CTL 68A62, 10^-4 M IV9 peptide, FIG. 4): rapid and sustaine; fraction of T cells with slower Ca2+ mobilization (pattern of inefficient T cells): 20%; fraction of cells with rapid/strong and sustained pattern of Ca2+ flux: about 90%; fraction of T cells with slower Ca2+ mobilization (pattern of inefficient T cells) [1]: less than 20%; fraction of cells with rapid/strong and sustained pattern of Ca2+ flux [1]: More than 80%; pattern of Ca2+ response of majority of T cells (CTL clone 68A62, suboptimal (much lower) concentration of the strong agonist peptide, FIG. 6): rapid and oscillating pattern of Ca2+ mobilization; also recorded: quick, but oscillating; pattern of Ca2+ response of majority of T cells (CTL clone 68A62, suboptimal (much lower) concentration of the strong agonist peptide, FIG. 6, listed as strong agonist pMHC ligand): slow oscillating kinetics of Ca2+ mobilization
